Experimental data taken from the CheMixHub drug solubility set.

Assay: xn = mol fraction of the nth substance listed, in the solute-free solvent

CCc1cccc2c3c([nH]c12)C(CC)(CC(=O)O)OCC3 (stereo not drawn) + CCCO + CCCCCC
solubility (g/100 g solution)
Conditions	278.15 K	283.15 K	288.15 K	293.15 K	298.15 K	303.15 K	308.15 K	313.15 K	318.15 K	323.15 K
x2 = 0.2645	3.73	4.25	4.84	5.55	6.34	7.19	8.14	9.21	10.4	11.7
x2 = 0.4889	7.29	8.31	9.43	10.8	12.2	14	15.9	18.1	20.6	23.4
x2 = 0.6827	10.4	11.8	13.4	15.2	17	19.4	22.2	25.3	28.6	31.9
x2 = 0.8514	12.8	14.4	16.5	18.7	21.5	24.5	27.9	31.4	35.1	38.5

CCc1cccc2c3c([nH]c12)C(CC)(CC(=O)O)OCC3 (stereo not drawn) + CCCCOC(C)=O + CCCCCC
solubility (g/100 g solution)
Conditions	278.15 K	283.15 K	288.15 K	293.15 K	298.15 K	303.15 K	308.15 K	313.15 K	318.15 K	323.15 K
x2 = 0.1568	0.52	0.667	0.805	0.936	1.08	1.23	1.41	1.62	1.86	2.07
x2 = 0.3309	3.1	3.48	3.93	4.43	5	5.64	6.39	7.21	8.15	9.12
x2 = 0.5268	4.5	5.13	5.79	6.5	7.27	8.13	9.13	10.2	11.5	12.9
x2 = 0.7478	7.51	8.4	9.35	10.4	11.5	12.8	14.2	15.8	17.5	19.4

CC1CCC2(C(=O)O)CCC3(C)C(=CCC4C5(C)CCC(O)C(C)(C)C5CCC43C)C2C1C (stereo not drawn) + CC(C)O + O
solubility (g/100 g solution)
Conditions	293.15 K	298.15 K	303.15 K	308.15 K	313.15 K	318.15 K	323.15 K	328.15 K	333.15 K
x2 = 0.0908	0.00219	0.00363	0.00394	0.00575	0.00586	0.00613	0.00653	0.00668	0.0109
x2 = 0.1389	0.00363	0.00474	0.00741	0.00959	0.0147	0.0158	0.0187	0.036	0.0388
x2 = 0.1969	0.0293	0.0352	0.0473	0.0614	0.0752	0.0821	0.0985	0.111	0.13
x2 = 0.2681	0.0944	0.118	0.13	0.142	0.158	0.22	0.239	0.282	0.33
x2 = 0.3575	0.146	0.195	0.236	0.284	0.359	0.387	0.493	0.514	0.656
x2 = 0.4734	0.171	0.276	0.328	0.378	0.529	0.672	1.01	1.16	1.21

O=C(O)c1ccc(-n2nc(-c3ccccc3O)nc2-c2ccccc2O)cc1 + CCO + CO
298.15 K
Conditions	solubility (g/100 g solution)
x2 = 0.07174	12.7
x2 = 0.1481	12.9
x2 = 0.2296	12.8
x2 = 0.3168	12.7
x2 = 0.4102	12.5
x2 = 0.5106	12.2
x2 = 0.6188	11.9
x2 = 0.7356	11.5
x2 = 0.8623	11

Cl.c1ccc2c(CC3=NCCN3)cccc2c1 + CO + CCO
solubility (g/100 g solution)
Conditions	278.15 K	283.15 K	288.15 K	293.15 K	298.15 K	303.15 K	308.15 K	313.15 K	318.15 K	323.15 K
x2 = 0.1377	2.14	2.61	3.11	3.69	4.45	5.14	5.88	6.74	7.61	8.5
x2 = 0.2644	3.05	3.54	3.96	4.7	5.27	6.18	7.06	8.2	9.28	10.6
x2 = 0.3812	3.8	4.39	5.05	5.74	6.63	7.58	8.73	9.78	11.4	12.7
x2 = 0.4894	4.21	4.86	5.45	6.36	7.17	8	9.31	10.4	11.9	13.2
x2 = 0.5898	4.47	5.59	6.2	7.21	8.02	9.29	10.6	11.7	13.2	14.6
x2 = 0.6832	4.86	5.8	6.77	7.78	8.82	10	11.3	12.8	14.4	16.1
x2 = 0.7704	5.03	6.14	7.26	8.67	10.3	11.5	13.1	14.6	16.2	18.3
x2 = 0.8519	5.48	6.63	7.79	9.34	11	13.3	14.8	16.8	18.5	20.5
x2 = 0.9283	5.66	6.83	8.15	9.82	11.7	14	15.7	18	19.9	21.9
